Test results taken from EP2832348B1, “METHOD FOR DISSOLVING FLAVONOID COMPOUND, CARBON GLYCOSIDE COMPOUND, OR STILBENE COMPOUND AND METHOD FOR PREPARING AN INJECTION OR A POWDER FOR INJECTION” (Kunming Pharmaceutical Corp., priority 2012, dated 2013).

Test: Dissolving the compound with solubilizer in heated, vacuum-stirred water for injection under nitrogen or argon gas (preparation tank)
Format: physicochemical
Conditions: kept at 80 °C
Experimental: In view of this, the present invention provides a method for dissolving a carbon glycoside compound or a stilbene compound, characterized in that the method comprises the following steps: • heating water for injection to 80-98 °C, followed by stirring under vacuum condition at 30-80 °C, and then adding the carbon glycoside compound or the stilbene compound along with a solubilizer under the protection of nitrogen gas or argon gas to obtain a solution of said compounds; • wherein the solubilizer is one or a mixture of two or more of gastrodin, water-soluble cyclodextrin and ethanol, and wherein the water-soluble cyclodextrin is one or a mixture of two or more of methyl-β-cyclodextrin, thioether-β-cyclodextrin and sulfobutyl ether-β-cyclodextrin; and • wherein the mass ratio of the carbon glycoside compound or the stilbene compound to the solubilizer is 1:1-20.
Disclosed is a method for dissolving a flavonoid compound, a carbon glycoside compound or a stilbene compound, including: • mixing the flavonoid compound, the carbon glycoside compound or the stilbene compound with a solubilizer to obtain a reactant; and • heating water for injection to 80-98 °C, followed by stirring under vacuum conditions at 30-80 °C, and then adding the reactant under the protection of nitrogen gas or argon gas to obtain a solution of the reactant.
Considering the sensitivity to heat or light of the flavonoid compound, the carbon glycoside compound or the stilbene compound, a method is provided by heating water for injection to 80-98 °C to remove dissolved oxygen and other gases in water, which reduces the surface tension of water, increases the contact area of water with the flavonoid compound, the carbon glycoside compound or the stilbene compound, thus increasing the dissolution speed. Meanwhile, pre-heating the water for injection can effectively avoid degradation of the flavonoid compound, the carbon glycoside compound or the stilbene compound due to exposure to the dissolved oxygen, to eliminate unstable factors of the flavonoid compound, the carbon glycoside compound or the stilbene compound. The vacuum conditions can achieve further deoxygenation, facilitating the dissolution of the flavonoid compound, the carbon glycoside compound or the stilbene compound in water. Nitrogen gas or argon gas provides an inert atmosphere, which further reduces the surface tension of the materials, increases the contact area of the flavonoid compound, the carbon glycoside compound or the stilbene compound with water, and increases the dissolution speed.

Compound: Oc1ccc2c(c1)OC[C@H]1c3cc4c(cc3O[C@@H]21)OCO4 [Maackiain]
- dissolved in (time) (Example 12: 5 g with Gastrodin 100 g, Disodium edetate 0.1 g, Sodium carbonate 3 g in 1000 ml, water heated to 95 °C, vacuum stirring 10 minutes, nitrogen gas): about 5 minutes

Compound: O=C1C[C@@H](c2ccc(O)cc2)Oc2cc(O)cc(O)c21 [Naringenin]
- dissolved in (time) (Example 14: 5 g with Gastrodin 100 g, Disodium edetate 0.1 g, Sodium carbonate 2 g in 1000 ml, water heated to 98 °C, vacuum stirring 10 minutes, nitrogen gas): about 5 minutes

Compound: COc1ccc(/C=C/c2cc(O)cc(O[C@@H]3O[C@H](CO)[C@@H](O)[C@H](O)[C@H]3O)c2)cc1O [Rhapontin]
- dissolved in (time) (Example 42: 50 g with Gastrodin 100 g, Hydroxypropyl-β-cyclodextrin 30 g in 1000 ml, water heated to 95 °C, vacuum stirring 10 minutes, nitrogen gas): about 5 minutes
- dissolved in (time) (Example 48: 5 g with Thioether-β-cyclodextrin 30 g in 1000 ml, water heated to 92 °C, vacuum stirring 40 minutes, nitrogen gas): about 5 minutes
- dissolved in (time) (Example 56: 10 g with Thioether-β-cyclodextrin 50 g in 1000 ml, water heated to 95 °C, vacuum stirring 10 minutes, nitrogen gas): about 5 minutes
- dissolved in (time) (Example 66: 5 g with Gastrodin 100 g in 1000 ml, water heated to 95 °C, vacuum stirring 10 minutes, nitrogen gas): about 5 minutes

Compound: O=C(O)[C@H]1O[C@@H](Oc2cc3oc(-c4ccccc4)cc(=O)c3c(O)c2O)[C@H](O)[C@@H](O)[C@@H]1O [Baicalin]
- dissolved in (time) (Example 10: 5 g with Gastrodin 100 g, Disodium edetate 0.1 g, Sodium carbonate 5 g in 1000 ml, water heated to 95 °C, vacuum stirring 10 minutes, nitrogen gas): about 5 minutes

Compound: O=c1c(-c2ccc(O)cc2)coc2cc(O)ccc12 [Daidzein]
- dissolved in (time) (Example 7: 10 g with Methyl-β-cyclodextrin 50 g, Sodium bicarbonate 1 g in 1000 ml, water heated to 80 °C, vacuum stirring 60 minutes, argon gas): about 5 minutes

Compound: O=c1c(O)c(-c2ccc(O)c(O)c2)oc2cc(O)cc(O)c12 [Quercetin]
- dissolved in (time) (Example 3: 25 g with Gastrodin 100 g, Methyl-β-cyclodextrin 50 g, Sodium carbonate 1 g in 1000 ml, water heated to 95 °C, vacuum stirring 1 minute, argon gas): about 5 minutes

Compound: COc1ccc(/C=C/c2cc(O)cc(O[C@@H]3O[C@H](CO)[C@@H](O)[C@H](O)[C@H]3O)c2)cc1 [Deoxyrhapontin (methyl polydatin), Deoxyrhapontin]
- dissolved in (time) (Example 43: 50 g with Gastrodin 100 g, Methyl-β-cyclodextrin 30 g in 1000 ml, water heated to 98 °C, vacuum stirring 15 minutes, nitrogen gas): about 5 minutes
- dissolved in (time) (Example 49: 5 g with Sulfobutyl ether-β-cyclodextrin 30 g in 1000 ml, water heated to 95 °C, vacuum stirring 10 minutes, nitrogen gas): about 5 minutes
- dissolved in (time) (Example 57: 10 g with Hydroxypropyl-β-cyclodextrin 50 g (formula; text: sulfobutyl ether-β-cyclodextrin) in 1000 ml, water heated to 95 °C, vacuum stirring 10 minutes, nitrogen gas): about 5 minutes
- dissolved in (time) (Example 67: 5 g with Gastrodin 100 g in 1000 ml, water heated to 95 °C, vacuum stirring 10 minutes, nitrogen gas): about 5 minutes

Compound: COc1c(O)cc2c(c1O)[C@@H]1O[C@H](CO)[C@@H](O)[C@H](O)[C@H]1OC2=O [Bergenin]
- dissolved in (time) (Example 21: 25 g with Gastrodin 100 g, Sulfobutyl ether-β-cyclodextrin 50 g, Sodium bicarbonate 1 g in 1000 ml, water heated to 85 °C, vacuum stirring 50 minutes, argon gas): about 10 minutes
- dissolved in (time) (Example 25: 10 g with Sulfobutyl ether-β-cyclodextrin 50 g, Sodium bicarbonate 1 g in 1000 ml, water heated to 95 °C, vacuum stirring 10 minutes, argon gas): about 5 minutes
- dissolved in (time) (Example 28: 5 g with Gastrodin 100 g, Disodium edetate 0.1 g in 1000 ml, water heated to 95 °C, vacuum stirring 10 minutes, nitrogen gas): about 10 minutes

Compound: O=c1c(-c2ccc(O)cc2)coc2c([C@@H]3O[C@H](CO)[C@@H](O)[C@H](O)[C@H]3O)c(O)ccc12 [Puerarin]
- dissolved in (time) (Example 5: 25 g with Gastrodin 100 g, Sulfobutyl ether-β-cyclodextrin 50 g, Sodium carbonate 1 g in 1000 ml, water heated to 95 °C, vacuum stirring 3 minutes, argon gas): about 5 minutes
- dissolved in (time) (Example 6 (formula: Daidzin 10 g) with Hydroxypropyl-β-cyclodextrin 50 g, Sodium bicarbonate 1 g in 1000 ml, water heated to 95 °C, vacuum stirring 8 minutes, argon gas): about 5 minutes

Compound: O=c1cc(-c2ccccc2)oc2cc(O)c(O)c(O)c12 [Baicalein]
- dissolved in (time) (Example 9: 10 g with Sulfobutyl ether-β-cyclodextrin 50 g, Sodium bicarbonate 1 g in 1000 ml, water heated to 90 °C, vacuum stirring 20 minutes, argon gas): about 5 minutes

Compound: O=C1CC(c2ccccc2)Oc2cc(O)c(O)c(O)c21 (centres unmarked) [Dihydrobaicalein]
- dissolved in (time) (Example 13: 5 g with Gastrodin 100 g, Disodium edetate 0.1 g, Sodium carbonate 3 g in 1000 ml, water heated to 90 °C, vacuum stirring 25 minutes, nitrogen gas): about 5 minutes

Compound: CC(=O)Cc1cc(=O)c2c(C)cc(O)c([C@@H]3O[C@H](CO)[C@@H](O)[C@H](O)[C@H]3O)c2o1 [Aloesin]
- dissolved in (time) (Example 22: 10 g with Hydroxypropyl-β-cyclodextrin 50 g, Sodium bicarbonate 1 g in 1000 ml, water heated to 88 °C, vacuum stirring 35 minutes, argon gas): about 5 minutes
- dissolved in (time) (Example 26: 5 g with Gastrodin 100 g, Disodium edetate 0.1 g in 1000 ml, water heated to 95 °C, vacuum stirring 10 minutes, nitrogen gas): about 10 minutes

Compound: O=C1c2c(O)cccc2C([C@@H]2O[C@H](CO)[C@@H](O)[C@H](O)[C@H]2O)c2cc(CO)cc(O)c21 (some centres unmarked) [Barbaloin]
- dissolved in (time) (Example 19: 25 g with Gastrodin 100 g, Methyl-β-cyclodextrin 50 g, Sodium bicarbonate 1 g in 1000 ml, water heated to 95 °C, vacuum stirring 10 minutes, argon gas): about 10 minutes
- dissolved in (time) (Example 23: 10 g with Methyl-β-cyclodextrin 50 g, Sodium bicarbonate 1 g in 1000 ml, water heated to 98 °C, vacuum stirring 10 minutes, argon gas): about 5 minutes
- dissolved in (time) (Example 30: 5 g with Gastrodin 100 g, Disodium edetate 0.1 g in 1000 ml, water heated to 95 °C, vacuum stirring 10 minutes, nitrogen gas): about 10 minutes

Compound: COc1ccc(-c2oc3cc(O)cc(O)c3c(=O)c2O)cc1 [Kaempferide]
- dissolved in (time) (Example 4: 25 g with Gastrodin 100 g, Thioether-β-cyclodextrin 50 g, Sodium carbonate 1 g in 1000 ml, water heated to 98 °C, vacuum stirring 5 minutes, argon gas): about 5 minutes

Compound: Breviscapine
- dissolved in (time) (Example 1: 5 g with Gastrodin 100 g, Sodium carbonate 10 g in 1000 ml, water heated to 95 °C, vacuum stirring 10 minutes, nitrogen gas): about 5 minutes
- dissolved in (time) (Example 2: 25 g with Gastrodin 100 g, Hydroxypropyl-β-cyclodextrin 50 g, Sodium carbonate 1 g in 1000 ml, water heated to 95 °C, vacuum stirring 10 minutes, argon gas): about 5 minutes
- dissolved in (time) (Example 8 (formula: Wogonin 10 g) with Thioether-β-cyclodextrin 50 g, Sodium bicarbonate 1 g in 1000 ml, water heated to 85 °C, vacuum stirring 30 minutes, argon gas): about 5 minutes

Compound: Oc1ccc(C=Cc2cc(O)cc(O)c2)cc1 [Resveratrol]
- dissolved in (time) (Example 39: 25 g with Gastrodin 80 g, Methyl-β-cyclodextrin 30 g in 1000 ml, water heated to 80 °C, vacuum stirring 60 minutes, nitrogen gas): about 5 minutes
- dissolved in (time) (Example 44: 50 g with Gastrodin 100 g, Thioether-β-cyclodextrin 30 g in 1000 ml, water heated to 95 °C, vacuum stirring 10 minutes, nitrogen gas): about 5 minutes
- dissolved in (time) (Example 50: 10 g with Hydroxypropyl-β-cyclodextrin 30 g in 1000 ml, water heated to 95 °C, vacuum stirring 10 minutes, nitrogen gas): about 5 minutes
- dissolved in (time) (Example 60: 20 g with Thioether-β-cyclodextrin 50 g in 1000 ml, water heated to 95 °C, vacuum stirring 10 minutes, nitrogen gas): about 5 minutes

Compound: Taxinine
- dissolved in (time) (Example 16: 12 g with Sulfobutyl ether-β-cyclodextrin 40 g in 1000 ml, water heated to 95 °C, vacuum stirring 10 minutes, nitrogen gas): about 5 minutes

Compound: COc1ccc([C@@H]2CC(=O)c3c(O)cc(O)cc3O2)cc1O [Hesperetin]
- dissolved in (time) (Example 15: 5 g with Gastrodin 100 g, Disodium edetate 0.1 g, Sodium carbonate 2 g in 1000 ml, water heated to 95 °C, vacuum stirring 10 minutes, nitrogen gas): about 5 minutes

Compound: OC[C@H]1O[C@@H](Oc2cc(O)cc(/C=C/c3ccc(O)cc3)c2)[C@H](O)[C@@H](O)[C@@H]1O [Polydatin]
- dissolved in (time) (Example 41: 25 g with Gastrodin 80 g, Sulfobutyl ether-β-cyclodextrin 30 g in 1000 ml, water heated to 85 °C, vacuum stirring 45 minutes, nitrogen gas): about 5 minutes
- dissolved in (time) (Example 46: 5 g with Hydroxypropyl-β-cyclodextrin 30 g in 1000 ml, water heated to 83 °C, vacuum stirring 25 minutes, nitrogen gas): about 5 minutes
- dissolved in (time) (Example 54: 10 g with Hydroxypropyl-β-cyclodextrin 50 g in 1000 ml, water heated to 95 °C, vacuum stirring 10 minutes, nitrogen gas): about 5 minutes
- dissolved in (time) (Example 64: 5 g with Gastrodin 100 g in 1000 ml, water heated to 95 °C, vacuum stirring 10 minutes, nitrogen gas): about 5 minutes

Compound: O=c1cc(-c2ccc(O)c(O)c2)oc2cc(O)c([C@@H]3O[C@H](CO)[C@@H](O)[C@H](O)[C@H]3O)c(O)c12 [Homoorientin]
- dissolved in (time) (Example 20: 25 g with Gastrodin 100 g, Thioether-β-cyclodextrin 50 g, Sodium bicarbonate 1 g in 1000 ml, water heated to 80 °C, vacuum stirring 60 minutes, argon gas): about 10 minutes
- dissolved in (time) (Example 24: 10 g with Thioether-β-cyclodextrin 50 g, Sodium bicarbonate 1 g in 1000 ml, water heated to 95 °C, vacuum stirring 10 minutes, argon gas): about 5 minutes
